The results in this text go back to patent US20230365627A1, “MACROCYCLIC PEPTIDE BORONATE IMMUNOMODULATORS” (Bristol-Myers Squibb Company, priority 2020, published 2023).

Molecules are shown by their SMILES. *1 amine or outer side, *2 acyl side, *3 side chain or, on linkers, in order; H or OH if unused. Where a SMILES comes first, the peptide text is derived from it. Bridges are numbered along the chain shown (N, C = ends). [ ]: non-standard residue; d: D form. Trp(1-CH2CO) = O=C([C@H](Cc1cn(CC(=O)[*:3])c2ccccc12)N[*:1])[*:2]; X25 = O=C([C@H](CNCc1cc(F)c(B(O)O[*:3])c(F)c1)N[*:1])[*:2]; X29 = COc1ccc(B(O)O[*:3])c(CNC[C@H](N[*:1])C(=O)[*:2])c1; X24 = O=C([C@H](CNCc1ccc(B(O)O[*:3])c(F)c1)N[*:1])[*:2]; X5 = O=C([C@H](CNCc1ccc(Cl)c(B(O)O[*:3])c1)N[*:1])[*:2]; X15 = COc1cccc(B(O)O[*:3])c1CNC[C@H](N[*:1])C(=O)[*:2]; X4 = O=C([C@H](CNCc1cc(Cl)ccc1B(O)O[*:3])N[*:1])[*:2]; X32 = O=C([C@H](CNCc1ccc(B(O)O[*:3])cc1)N[*:1])[*:2]; X2 = O=C([C@H](CNCc1ccc(B(O)O[*:3])cn1)N[*:1])[*:2]; X6 = O=C([C@H](CNCc1cccc(B(O)O[*:3])c1)N[*:1])[*:2]; X27 = O=C([C@H](CNCc1ccccc1B(O)O[*:3])N[*:1])[*:2]; Hyp = O=C(O)[C@@H]1C[C@@H](O)CN1; NMeNle = CCCC[C@H](NC)C(=O)O; NMeA = CN[C@@H](C)C(=O)O; Dab = NCC[C@H](N)C(=O)O

The target in this assay is PD-1/PD-L1 (Homo sapiens (Human), UniProt Q9NZQ7). As to the kind of experiment: PD-1/PD-L1 Homogenous Time-Resolved Fluorescence (HTRF) binding assay. The following applies: PD-L1-His 10 nM, PD-1-Ig 20 nM; read-out: HTRF IC50. From the text:
Methods for Testing the Ability of Macrocyclic Peptides to Compete for the Binding of PD-1 to PD-L1 Using Homogenous Time-Resolved Fluorescence (HTRF) Binding Assays
The ability of the compounds of formula (I) to bind to PD-L1 was investigated using a PD-1/PD-L1 Homogenous Time-Resolved Fluorescence (HTRF) binding assay.
Homogenous Time-Resolved Fluorescence (HTRF) Binding Assay
The interaction of PD-1 and PD-L1 can be assessed using soluble, purified preparations of the extracellular domains of the two proteins. The PD-1 and PD-L1 protein extracellular domains were expressed as fusion proteins with detection tags, for PD-1, the tag was the Fc portion of Immunoglobulin (PD-1-Ig) and for PD-L1 it was the 6 histidine motif (PD-L1-His). All binding studies were performed in an HTRF assay buffer consisting of dPBS supplemented with 0.1% […] bovine serum albumin and 0.05% (v/v) Tween-20. For the h/PD-L1-His binding assay, inhibitors were pre-incubated with PD-L1-His (10 nM final) for 15 m in 4 μl of assay buffer, followed by addition of PD-1-Ig (20 nM final) in 1 μl of assay buffer and further incubation for 15 m. HTRF detection was achieved using europium cryptate-labeled anti-Ig (1 nM final) and allophycocyanin (APC) labeled anti-His (20 nM final). Antibodies were diluted in HTRF detection buffer and 5 μl was dispensed on top of the binding reaction. The reaction mixture was allowed to equilibrate for 30 minutes and the resulting signal (665 nm/620 nm ratio) was obtained using an EnVision fluorometer. Additional binding assays were established between the human proteins PD-1-Ig/PD-L2-His (20 & 5 nM, respectively) and CD80-His/PD-L1-Ig (100 & 10 nM, respectively).
Recombinant Proteins: Human PD-1 (25-167) with a C-terminal human Fc domain of immunoglobulin G (Ig) epitope tag [hPD-1 (25-167)-3S-IG] and human PD-L1 (18-239) with a C-terminal His epitope tag [hPD-L1(18-239)-TVMV-His] were expressed in HEK293T cells and purified sequentially by ProteinA affinity chromatography and size exclusion chromatography. Human PD-L2-His and CD80-His was obtained through commercial sources.
Table 1 lists the IC50 values for representative examples of this disclosure measured in the PD-1/PD-L1 Homogenous Time-Resolved Fluorescence (HTRF) binding assay.
(Time-resolved FRET reads energy transfer from a long-lived donor to a nearby acceptor.)

PD-1/PD-L1, sequence (Q9NZQ7 18-239): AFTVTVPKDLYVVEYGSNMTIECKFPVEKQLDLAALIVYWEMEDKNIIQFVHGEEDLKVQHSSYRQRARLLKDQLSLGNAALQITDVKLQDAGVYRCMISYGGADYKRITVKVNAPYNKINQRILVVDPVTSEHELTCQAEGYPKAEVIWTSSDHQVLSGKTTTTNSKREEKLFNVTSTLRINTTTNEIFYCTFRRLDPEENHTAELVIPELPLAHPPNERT

Broadly, the IC50 is the concentration at which inhibition is half-maximal. `CCCC[C@H]1C(=O)N(C)[C@@H](CCCC)C(=O)N[C@@H](CC(C)C)C(=O)N[C@H](C(=O)NCC(N)=O)CSCC(=O)N[C@@H](Cc2ccc(O)cc2)C(=O)N(C)[C@@H](C)C(=O)N[C@@H](CC(N)=O)C(=O)N2CCC[C@H]2C(=O)N[C@H]2CNCc3cccc(c3)B(O)OC(=O)Cn3cc(c4ccccc43)C[C@H](NC(=O)[C@H](CCN)NC(=O)[C@H](Cc3c[nH]c4ccccc34)NC(=O)[C@@H]3C[C@@H](O)CN3C(=O)[C@H](CC(C)C)NC2=O)C(=O)N1C` [Example 1001] ({CH2CO}-Y[NMeA]NP[X6]L[Hyp]W[Dab][Trp(1-CH2CO)][NMeNle][NMeNle]LCG-NH2; ester 5-10; thioether N-14): the IC50 amounted to 3.8 nM. The same measure for `CCCC[C@H]1C(=O)N(C)[C@@H](CCCC)C(=O)N[C@@H](CC(C)C)C(=O)N[C@H](C(=O)NCC(N)=O)CSCC(=O)N[C@@H](Cc2ccc(O)cc2)C(=O)N(C)[C@@H](C)C(=O)N[C@@H](CC(N)=O)C(=O)N2CCC[C@H]2C(=O)N[C@H]2CNCc3ccc(cc3)B(O)OC(=O)Cn3cc(c4ccccc43)C[C@H](NC(=O)[C@H](CCN)NC(=O)[C@H](Cc3c[nH]c4ccccc34)NC(=O)[C@@H]3C[C@@H](O)CN3C(=O)[C@H](CC(C)C)NC2=O)C(=O)N1C` [Example 1002] ({CH2CO}-Y[NMeA]NP[X32]L[Hyp]W[Dab][Trp(1-CH2CO)][NMeNle][NMeNle]LCG-NH2; ester 5-10; thioether N-14): 3.5 nM. For `CCCC[C@H]1C(=O)N(C)[C@@H](CCCC)C(=O)N[C@@H](CC(C)C)C(=O)N[C@H](C(=O)NCC(N)=O)CSCC(=O)N[C@@H](Cc2ccc(O)cc2)C(=O)N(C)[C@@H](C)C(=O)N[C@@H](CC(N)=O)C(=O)N2CCC[C@H]2C(=O)N[C@H]2CNCc3ccccc3B(O)OC(=O)Cn3cc(c4ccccc43)C[C@H](NC(=O)[C@H](CCN)NC(=O)[C@H](Cc3c[nH]c4ccccc34)NC(=O)[C@@H]3C[C@@H](O)CN3C(=O)[C@H](CC(C)C)NC2=O)C(=O)N1C` [Example 1003] ({CH2CO}-Y[NMeA]NP[X27]L[Hyp]W[Dab][Trp(1-CH2CO)][NMeNle][NMeNle]LCG-NH2; ester 5-10; thioether N-14), the IC50 was 7.8 nM.

With `CCCC[C@H]1C(=O)N(C)[C@@H](CCCC)C(=O)N[C@@H](CC(C)C)C(=O)N[C@H](C(=O)NCC(N)=O)CSCC(=O)N[C@@H](Cc2ccc(O)cc2)C(=O)N(C)[C@@H](C)C(=O)N[C@@H](CC(N)=O)C(=O)N2CCC[C@H]2C(=O)N[C@H]2CNCc3ccc(cc3)B3OB(O3)c3ccc(cc3)CNCC[C@H](NC(=O)[C@H](Cc3c[nH]c4ccccc34)NC(=O)[C@@H]3C[C@@H](O)CN3C(=O)[C@H](CC(C)C)NC2=O)C(=O)N[C@@H](Cc2cn(CC(=O)O)c3ccccc23)C(=O)N1C` [Example 1004], the half-maximal inhibitory concentration (IC50) was 6.3 nM.

`CCCC[C@H]1C(=O)N(C)[C@@H](CCCC)C(=O)N[C@@H](CC(C)C)C(=O)N[C@H](C(=O)NCC(N)=O)CSCC(=O)N[C@@H](Cc2ccc(O)cc2)C(=O)N(C)[C@@H](C)C(=O)N[C@@H](CC(N)=O)C(=O)N2CCC[C@H]2C(=O)N[C@H]2CNCc3ccc(cc3)B3OB(O3)c3cccc(c3)CNCC[C@H](NC(=O)[C@H](Cc3c[nH]c4ccccc34)NC(=O)[C@@H]3C[C@@H](O)CN3C(=O)[C@H](CC(C)C)NC2=O)C(=O)N[C@@H](Cc2cn(CC(=O)O)c3ccccc23)C(=O)N1C` [Example 1005]: the half-inhibitory concentration (IC50) was 7.1 nM.

Turning to `CCCC[C@H]1C(=O)N(C)[C@@H](CCCC)C(=O)N[C@@H](CC(C)C)C(=O)N[C@H](C(=O)NCC(N)=O)CSCC(=O)N[C@@H](Cc2ccc(O)cc2)C(=O)N(C)[C@@H](C)C(=O)N[C@@H](CC(N)=O)C(=O)N2CCC[C@H]2C(=O)N[C@H]2CNCc3cc(OC)ccc3B(O)OC(=O)Cn3cc(c4ccccc43)C[C@H](NC(=O)[C@H](CCN)NC(=O)[C@H](Cc3c[nH]c4ccccc34)NC(=O)[C@@H]3C[C@@H](O)CN3C(=O)[C@H](CC(C)C)NC2=O)C(=O)N1C` [Example 1006] ({CH2CO}-Y[NMeA]NP[X29]L[Hyp]W[Dab][Trp(1-CH2CO)][NMeNle][NMeNle]LCG-NH2; ester 5-10; thioether N-14), the IC50 was 9 nM. For the compound `CCCC[C@H]1C(=O)N(C)[C@@H](CCCC)C(=O)N[C@@H](CC(C)C)C(=O)N[C@H](C(=O)NCC(N)=O)CSCC(=O)N[C@@H](Cc2ccc(O)cc2)C(=O)N(C)[C@@H](C)C(=O)N[C@@H](CC(N)=O)C(=O)N2CCC[C@H]2C(=O)N[C@H]2CNCc3cc(F)c(c(F)c3)B(O)OC(=O)Cn3cc(c4ccccc43)C[C@H](NC(=O)[C@H](CCN)NC(=O)[C@H](Cc3c[nH]c4ccccc34)NC(=O)[C@@H]3C[C@@H](O)CN3C(=O)[C@H](CC(C)C)NC2=O)C(=O)N1C` [Example 1007] ({CH2CO}-Y[NMeA]NP[X25]L[Hyp]W[Dab][Trp(1-CH2CO)][NMeNle][NMeNle]LCG-NH2; ester 5-10; thioether N-14), the IC50 worked out at 9.9 nM.

For `CCCC[C@H]1C(=O)N(C)[C@@H](CCCC)C(=O)N[C@@H](CC(C)C)C(=O)N[C@H](C(=O)NCC(N)=O)CSCC(=O)N[C@@H](Cc2ccc(O)cc2)C(=O)N(C)[C@@H](C)C(=O)N[C@@H](CC(N)=O)C(=O)N2CCC[C@H]2C(=O)N[C@H]2CNCc3cc(Cl)ccc3B(O)OC(=O)Cn3cc(c4ccccc43)C[C@H](NC(=O)[C@H](CCN)NC(=O)[C@H](Cc3c[nH]c4ccccc34)NC(=O)[C@@H]3C[C@@H](O)CN3C(=O)[C@H](CC(C)C)NC2=O)C(=O)N1C` [Example 1008] ({CH2CO}-Y[NMeA]NP[X4]L[Hyp]W[Dab][Trp(1-CH2CO)][NMeNle][NMeNle]LCG-NH2; ester 5-10; thioether N-14), the concentration for half-maximal inhibition (IC50) was 6.7 nM.

For `CCCC[C@H]1C(=O)N(C)[C@@H](CCCC)C(=O)N[C@@H](CC(C)C)C(=O)N[C@H](C(=O)NCC(N)=O)CSCC(=O)N[C@@H](Cc2ccc(O)cc2)C(=O)N(C)[C@@H](C)C(=O)N[C@@H](CC(N)=O)C(=O)N2CCC[C@H]2C(=O)N[C@H]2CNCc3ccc(c(F)c3)B(O)OC(=O)Cn3cc(c4ccccc43)C[C@H](NC(=O)[C@H](CCN)NC(=O)[C@H](Cc3c[nH]c4ccccc34)NC(=O)[C@@H]3C[C@@H](O)CN3C(=O)[C@H](CC(C)C)NC2=O)C(=O)N1C` [Example 1009] ({CH2CO}-Y[NMeA]NP[X24]L[Hyp]W[Dab][Trp(1-CH2CO)][NMeNle][NMeNle]LCG-NH2; ester 5-10; thioether N-14), the IC50 was 2.6 nM.

On to `CCCC[C@H]1C(=O)N(C)[C@@H](CCCC)C(=O)N[C@@H](CC(C)C)C(=O)N[C@H](C(=O)NCC(N)=O)CSCC(=O)N[C@@H](Cc2ccc(O)cc2)C(=O)N(C)[C@@H](C)C(=O)N[C@@H](CC(N)=O)C(=O)N2CCC[C@H]2C(=O)N[C@H]2CNCc3ccc(cn3)B(O)OC(=O)Cn3cc(c4ccccc43)C[C@H](NC(=O)[C@H](CCN)NC(=O)[C@H](Cc3c[nH]c4ccccc34)NC(=O)[C@@H]3C[C@@H](O)CN3C(=O)[C@H](CC(C)C)NC2=O)C(=O)N1C` [Example 1010] ({CH2CO}-Y[NMeA]NP[X2]L[Hyp]W[Dab][Trp(1-CH2CO)][NMeNle][NMeNle]LCG-NH2; ester 5-10; thioether N-14), for which the IC50 came out at 8.6 nM. Consider `CCCC[C@H]1C(=O)N(C)[C@@H](CCCC)C(=O)N[C@@H](CC(C)C)C(=O)N[C@H](C(=O)NCC(N)=O)CSCC(=O)N[C@@H](Cc2ccc(O)cc2)C(=O)N(C)[C@@H](C)C(=O)N[C@@H](CC(N)=O)C(=O)N2CCC[C@H]2C(=O)N[C@H]2CNCc3ccc(Cl)c(c3)B(O)OC(=O)Cn3cc(c4ccccc43)C[C@H](NC(=O)[C@H](CCN)NC(=O)[C@H](Cc3c[nH]c4ccccc34)NC(=O)[C@@H]3C[C@@H](O)CN3C(=O)[C@H](CC(C)C)NC2=O)C(=O)N1C` [Example 1011] ({CH2CO}-Y[NMeA]NP[X5]L[Hyp]W[Dab][Trp(1-CH2CO)][NMeNle][NMeNle]LCG-NH2; ester 5-10; thioether N-14), for which the IC50 came to 6.4 nM. Regarding `CCCC[C@H]1C(=O)N(C)[C@@H](CCCC)C(=O)N[C@@H](CC(C)C)C(=O)N[C@H](C(=O)NCC(N)=O)CSCC(=O)N[C@@H](Cc2ccc(O)cc2)C(=O)N(C)[C@@H](C)C(=O)N[C@@H](CC(N)=O)C(=O)N2CCC[C@H]2C(=O)N[C@H]2CNCc3c(OC)cccc3B(O)OC(=O)Cn3cc(c4ccccc43)C[C@H](NC(=O)[C@H](CCN)NC(=O)[C@H](Cc3c[nH]c4ccccc34)NC(=O)[C@@H]3C[C@@H](O)CN3C(=O)[C@H](CC(C)C)NC2=O)C(=O)N1C` [Example 1012] ({CH2CO}-Y[NMeA]NP[X15]L[Hyp]W[Dab][Trp(1-CH2CO)][NMeNle][NMeNle]LCG-NH2; ester 5-10; thioether N-14), the IC50 was 3 nM.
